Source: publication PMC10649961, “Novel Mitochondria-Targeted Amphiphilic Aminophosphonium Salts and Lipids Nanoparticles: Synthesis, Antitumor Activity and Toxicity” (Nanomaterials, 2023)
Read-outs that look alike come from different tables or passages of the source.

Key:
[1] = system: Staphylococcus aureus ATCC 6538 P FDA 209P; experiment: Antimicrobial activity, serial microdilutions, Sa; type: cell-based; settings: Staphylococcus aureus; for MIC: read-out: Minimum Inhibitory Concentration (MIC); for MBC: read-out: Minimum bactericidal and fungicidal concentrations (MBC, MFC)
Method in brief: (§1)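 Compounds were serially diluted in broth: Mueller-Hinton for the bacterial strains, Sabouraud for the yeast. Each determination was done in triplicate.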

[2] = system: Bacillus cereus ATCC 10702 NCTC 8035; experiment: Antimicrobial activity, serial microdilutions, Bc; type: cell-based; set-up: key to Minimum bactericidal and fungicidal concentrations (MBC, MFC): – means non-active; settings: Bc; for MIC: Bacillus cereus, read-out: Minimum Inhibitory Concentration (MIC)
Method in brief: as §1

[3] = system: Enterococcus faecalis ATCC 29212; experiment: Antimicrobial activity, serial microdilutions, Ef; type: cell-based; set-up: key to Minimum Inhibitory Concentration (MIC) / Minimum bactericidal and fungicidal concentrations (MBC, MFC): – means non-active; settings: for MIC: Enterococcus faecalis, ATCC29212, read-out: Minimum Inhibitory Concentration (MIC)
Method in brief: as §1

MRSA-1 = experiment: Antimicrobial activity, serial microdilutions, MRSA-1; type: cell-based, S. aureus; settings: Staphylococcus aureus; for MIC: read-out: Minimum Inhibitory Concentration (MIC); for MBC: read-out: Minimum bactericidal and fungicidal concentrations (MBC, MFC)
Method in brief: as §1

MRSA-2 = experiment: Antimicrobial activity, serial microdilutions, MRSA-2; type: cell-based, S. aureus; settings: Staphylococcus aureus; for MIC: read-out: Minimum Inhibitory Concentration (MIC); for MBC: read-out: Minimum bactericidal and fungicidal concentrations (MBC, MFC)
Method in brief: as §1

[4] = system: Escherichia coli ATCC 25922; experiment: Antimicrobial activity, serial microdilutions, Ec; type: cell-based; set-up: key to Minimum Inhibitory Concentration (MIC) / Minimum bactericidal and fungicidal concentrations (MBC, MFC): – means non-active
Method in brief: as §1

[5] = system: Pseudomonas aeruginosa ATCC 9027; experiment: Antimicrobial activity, serial microdilutions, Pa; type: cell-based; set-up: key to Minimum Inhibitory Concentration (MIC) / Minimum bactericidal and fungicidal concentrations (MBC, MFC): – means non-active
Method in brief: as §1

[6] = system: Candida albicans ATCC 10231; experiment: Antimicrobial activity, serial microdilutions, Ca; type: cell-based; set-up: key to Minimum Inhibitory Concentration (MIC) / Minimum bactericidal and fungicidal concentrations (MBC, MFC): – means non-active; settings: Ca
Method in brief: as §1

M-HeLa [7] = system: M-HeLa
MCF-7 [8] = system: MCF-7
HuTu 80 [9] = system: HuTu 80
PANC-1 [10] = system: PANC-1
A549 [11] = system: A549
T98G [12] = system: T98G
Hep G2 [13] = system: Hep G2
SK-OV-3 [14] = settings: reference normal cell line not marked at the place (ns cells)
DU-145 [15] = system: DU-145
M-HeLa [16] = experiment: cells; settings: Homo sapiens, 48 h, read-out: Cytotoxic Effects (IC50)
MCF-7 [17] = experiment: cells; settings: Homo sapiens, MCF7, 48 h, read-out: Cytotoxic Effects (IC50)
HuTu 80 [18] = experiment: cells; settings: Homo sapiens, HuTu80, 48 h, read-out: Cytotoxic Effects (IC50)
PANC-1 [19] = experiment: cells; settings: Homo sapiens, PANC-1, 48 h, read-out: Cytotoxic Effects (IC50)
A549 [20] = experiment: cells; settings: Homo sapiens, A549, 48 h, read-out: Cytotoxic Effects (IC50)
T98G [21] = experiment: cells; settings: Homo sapiens, 48 h, read-out: Cytotoxic Effects (IC50)
Hep G2 [22] = experiment: cells; settings: Homo sapiens, HepG2, 48 h, read-out: Cytotoxic Effects (IC50)
SK-OV-3 [23] = experiment: cells; settings: Homo sapiens, SK-OV-3, 48 h, read-out: Cytotoxic Effects (IC50)
DU-145 [24] = experiment: cells; settings: Homo sapiens, DU-145, 48 h, read-out: Cytotoxic Effects (IC50), DU-145, MTT assay, 48 h
HuTu 80 cells = experiment: Cell cycle analysis, propidium iodide flow cytometry; type: cell-based, human; settings: HuTu 80, IC50, 48 h, compared with the control
Experimental: The DNA content and cell-cycle distribution after compounds 4b, 5b, 6a, and 8 IC50 concentrations were estimated by flow cytometry. After washing with PBS, treated cells were suspended in 150 μL of PBS, then 0.5 mL of phosphate-citrate buffer (0.05 M, pH 4.0) was added, and the suspension was incubated at room temperature for 5 min to facilitate the extraction of low-molecular-weight DNA. Following centrifugation, the cells were resuspended in 150 μL DNA staining solution (20 μg/mL propidium iodide, 200 μg/mL […]) and incubated in the CO2 incubator (37 °C for 30 min). The distribution of the cell cycle was determined by fluorescence analysis of HuTu 80 cells stained with propidium iodide using Guava easyCyte (Guava easyCyte).

[25] = calculated relative to the cell line WI38 (a)
[26] = calculated relative to the cell line Chang liver (b)
[27] = reference normal cell line not marked at the place (ns cells)

Row | SMILES | MIC [1] [µM] | MBC [1] [µM] | MIC [2] [µM] | Minimum bactericidal and fungicidal concentrations (MBC, MFC) [2] | Minimum bactericidal and fungicidal concentrations (MBC, MFC) [3] | MIC [3] [µM] | MIC (MRSA-1) [µM] | MBC (MRSA-1) [µM] | MIC (MRSA-2) [µM] | MBC (MRSA-2) [µM] | Minimum Inhibitory Concentration (MIC) [4] | Minimum bactericidal and fungicidal concentrations (MBC, MFC) [5] | Minimum Inhibitory Concentration (MIC) [6] | Minimum bactericidal and fungicidal concentrations (MBC, MFC) [6] | selectivity index (SI) (SK-OV-3 [14]) | IC50 (M-HeLa [16]) [µM] | IC50 (MCF-7 [17]) [µM] | IC50 (HuTu 80 [18]) [µM] | IC50 (PANC-1 [19]) [µM] | IC50 (A549 [20]) [µM] | other results
1 | CCCCCCCC[P+](c1ccccc1)(c1ccccc1)N(CC)CC [6b, (Diethylamino)(octyl)diphenylphosphonium iodide] | 7.8 ± 0.6 | 125 ± 11 | 3.9 ± 0.4 | – | – | 62.5 ± 5.5 | 7.8 ± 0.6 | 31.3 ± 2.6 | 7.8 ± 0.6 | 31.3 ± 2.5 | – | – | – | – | ns (ns—no selectivity) | 0.95 ± 0.08 | 9.5 ± 0.8 | 0.2 ± 0.01 | 1.3 ± 0.1 | 13 ± 1.1 | Minimum bactericidal and fungicidal concentrations (MBC, MFC) [4]: –; Minimum Inhibitory Concentration (MIC) [5]: –; selectivity index (SI) (M-HeLa [7]; [25]): 17; selectivity index (SI) (MCF-7 [8]; [25]): 1.7; selectivity index (SI) (HuTu 80 [9]; [25]): 81; selectivity index (SI) (PANC-1 [10]; [25]): 12; selectivity index (SI) (A549 [11]; [25]): 1.2; selectivity index (SI) (PC3; [25]): 19; selectivity index (SI) (T98G [12]; [25]): 5.0; selectivity index (SI) (Hep G2 [13]; [25]): 1.4; selectivity index (SI) (DU-145 [15]; [25]): 20; IC50 (T98G [21]): 3.4 ± 0.2 µM; IC50 (Hep G2 [22]): 11.6 ± 0.9 µM; IC50 (SK-OV-3 [23]): 17.6 ± 1.4 µM; IC50 (DU-145 [24]): 0.8 ± 0.07 µM
2 | CCCCCCCC[P+](c1ccccc1)(N(CC)CC)N(CC)CC [5b, Bis(diethylamino)(octyl)(phenyl)phosphonium iodide] | 7.8 ± 0.6 | 250 ± 20 | 7.8 ± 0.6 | – | – | 125 ± 11 | 15.6 ± 1.2 | 500 ± 48 | 15.6 ± 1.2 | 250 ± 20 | – | – | – | – | ns (ns—no selectivity) | 1.8 ± 0.1 | 2.6 ± 0.2 | 4 ± 0.3 | 1.2 ± 0.1 | 20 ± 1.6 | effect on cell cycle (in words) (HuTu 80 cells): significant delay of cells in the G0/G1 phase; MBC ([4]; Escherichia coli, ATCC25922, read-out: Minimum bactericidal and fungicidal concentrations (MBC, MFC)): 500 ± 49 µM; MIC ([5]; Pseudomonas aeruginosa, ATCC9027, read-out: Minimum Inhibitory Concentration (MIC)): 500 ± 46 µM; selectivity index (SI) (M-HeLa [7]; [26]): 2.2; selectivity index (SI) (MCF-7 [8]; [26]): 1.5; selectivity index (SI) (HuTu 80 [9]; [26]): 1.0; selectivity index (SI) (PANC-1 [10]; [26]): 3.3; selectivity index (SI) (A549 [11]; [27]): ns (ns—no selectivity); selectivity index (SI) (PC3; [27]): ns (ns—no selectivity); selectivity index (SI) (T98G [12]; [26]): 1.0; selectivity index (SI) (Hep G2 [13]; [26]): 1.4; selectivity index (SI) (DU-145 [15]; [26]): 2.0; IC50 (T98G [21]): 4.3 ± 0.3 µM; IC50 (Hep G2 [22]): 2.9 ± 0.3 µM; IC50 (SK-OV-3 [23]): 25.6 ± 1.8 µM; IC50 (DU-145 [24]): 2 ± 0.1 µM
